Laboratory results from patent US7125903B1 (Aventis Pharmaceuticals Inc., priority 1999, dated 2006).
Where a name gives a salt, the structure may show the parent alone.

Test system: not given
Assay: not given
Conditions: not given

melting point [°C] | SMILES
110 to 113 | COc1ccc(N2CCN(C[C@@H](O)COc3cccc(-c4noc5ccsc45)c3)CC2)cc1 [Example 48, (2R)-1-[4-(4-methoxyphenyl)piperazin-1-yl]-3-(3-thieno[2,3-d]isoxazol-3-yl-phenoxy)-propan-2-ol]
77 to 79 | O[C@@H](COc1cccc(-c2noc3ccsc23)c1)CN1CCN(c2ccccc2C(F)(F)F)CC1 [Example 52, (2R)-1-(3-thieno[2,3-d]isoxazol-3-yl-phenoxy)-3-[4-(2-trifluoromethylphenyl)-piperazin-1-yl]propan-2-ol]
83 to 86 | O[C@@H](COc1cccc(-c2noc3ccsc23)c1)CN1CCN(c2ccccc2Cl)CC1 [Example 46, (2R)-1-[4-(2-chlorophenyl)piperazin-1-yl]-3-(3-thieno[2,3-d]isoxazol-3-yl-phenoxy)-propan-2-ol]
84 to 86 | COc1ccc2[nH]nc(N3CCN(C[C@@H](O)COc4cccc(-c5noc6ccsc56)c4)CC3)c2c1 [Example 12, (2R)-1-[4-(5-methoxy-1H-indazol-3-yl)-piperazin-1-yl]-3-(3-thieno[2,3-d]isoxazol-3-yl-phenoxy)-propan-2-ol]
118 to 120 | O[C@@H](COc1cccc(-c2noc3ccsc23)c1)CN1CCN(c2cccc(Cl)c2)CC1 [Example 47, (2R)-1-[4-(3-chlorophenyl)piperazin-1-yl]-3-(3-thieno[2,3-d]isoxazol-3-yl-phenoxy)-propan-2-ol]

Molecular target: T1, human D4 receptor (D4.2 sub-type) (Homo sapiens, UniProt P21917, DEL265-296)
T1 construct: expressed in transfected cells
T1 sequence (P21917 with tags, fused parts or gaps DEL265-296): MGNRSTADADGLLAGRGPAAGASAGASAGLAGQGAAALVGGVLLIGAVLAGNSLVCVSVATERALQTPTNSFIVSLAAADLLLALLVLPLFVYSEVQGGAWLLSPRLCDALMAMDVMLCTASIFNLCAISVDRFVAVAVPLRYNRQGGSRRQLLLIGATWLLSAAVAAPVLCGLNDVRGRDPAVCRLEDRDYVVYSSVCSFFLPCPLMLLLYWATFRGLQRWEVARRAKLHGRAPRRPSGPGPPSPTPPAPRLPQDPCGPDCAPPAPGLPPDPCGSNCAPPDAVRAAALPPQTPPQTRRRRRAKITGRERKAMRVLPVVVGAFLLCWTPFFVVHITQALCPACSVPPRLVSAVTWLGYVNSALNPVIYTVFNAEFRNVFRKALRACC
Assay: D4 receptor binding assay (3H-spiperone displacement)
Conditions: 1 μM test compound, inhibition of 3H-spiperone binding; read-out: D4 RBA % Inhib. @ 1 μM
Method: D4 receptor-binding affinities of the compounds were evaluated according to their ability to reduce binding of ^3H-spiperone as compared to the reference compound clozapine. The potency of the test compound to reduce ^3H-spiperone binding directly correlated to its binding affinity for the receptor.
[…] (human embryonic kidney) cells stably transfected with human D4 receptor (D4.2 sub-type) were grown in NUNC cell factories for 5 days (75% confluency) without a media change and removed with versene (approximately 19 mg of cells per cell factory tray). The cells were then centrifuged in a Sorval centrifuge for 10 min, 5000 rpm (GS3 rotor) and the pellets quickly frozen in liquid nitrogen and stored at −80° C. until used in binding assay. When used in the assay, cells were thawed on ice for 20 min and then 10 mL of incubation buffer (50 mM Tris, 1 mM EDTA, 4 mM MgCl2, 5 mM KCl, 1.5 mM CaCl2, 120 mM NaCl, pH 7.4) was added. The cells were then vortexed to resuspend pellet and homogenized with a Kinematica, CH-6010 Kriens-LU, homogenizer for 15 seconds at setting 7. Concentration of receptor protein was determined using the Pierce BCA assay.
The incubation was started by the addition of 100 μl (50 μg protein) membrane homogenate to a solution of 300 μl incubation buffer and 100 μl (0.25 nM final conc.) ^3H-spiperone (90 Ci/mmol, Amersham, diluted in borosilicate glass vial) in 96-well polypropylene plates (1 mL per well). The plates were vortexed and incubated at room temperature for 90 minutes. The binding reaction was stopped by filtering using a Packard Harvester. The samples were filtered under vacuum over glass fibre filter plates (Whatman GF/B) presoaked for 2 hours in 0.3% polyethylenimine (PEI) in 50 mM Tris buffer (pH 7.4). The filters were then washed 6 times with 7 mL ice cold 50 mM Tris buffer (pH 7.4). The filter plates were dried overnight and 35 μl of Microscint-O (Packard) was added. The plates were sealed and counted in the Packard Top Count (3 minutes per well).
The incubation was started by the addition of 100 μl (50 μg protein) membrane homogenate to a solution of 200 μl incubation buffer, 100 μl ^3H-spiperone (90 Ci/mmol, Amersham, diluted in borosilicate glass vial to 0.25 nM final conc.) and 100 μl (30 μM final conc.) of fresh dopamine (Research Biochemicals Inc., light protected and dissolved in incubation buffer) in 96-well polypropylene plates (1 mL per well). The plates were vortexed and incubated at room temperature for 90 minutes at which time the binding reaction was stopped by filtering. The filters were washed and counted using the same procedure as in the total binding assay described above to give the nonspecific binding value (NSB).
The incubation was started by the addition, in 96-well polypropylene plates (1 mL per well), of 100 μl (50 μg protein) membrane homogenate to a solution of 200 μl incubation buffer, 100 μl (0.25 nM final conc.) ^3H-spiperone (90 Ci/mmol, Amersham, diluted in borosilicate glass vial) and 100 μl of test compound that was prepared from 1 mM stock dissolved in DMSO and stored at −20° C. in polypropylene cryogenic storage vials until dilution in incubation buffer in 96-well polypropylene plates. The plates were vortexed and incubated at room temperature for 90 minutes at which time the binding reaction was stopped by filtering. The filters were washed and counted using the same procedure as in the total binding assay described above to give the displacement binding value (BD).
The test compounds were initially assayed at 1 and 0.1 μM and then at a range of concentrations chosen such that the middle dose would cause about 50% inhibition of ^3H-spiperone binding. Specific binding in the absence of test compound (B0) was the difference of total binding (BT) minus non-specific binding (NSB) and similarly specific binding (in the presence of test compound) (B) was the difference of displacement binding (BD) minus non-specific binding (NSB). […]

SMILES | inhibition at 1 µM [%]
O[C@H](CNCc1ccco1)COc1ccc(-c2noc3ccsc23)cc1 [Example 42] | 44
C[C@](O)(CNCc1cccc2ccccc12)COc1cccc(-c2noc3ccsc23)c1 [Example 57] | 96
C[C@H](NC[C@](C)(O)COc1cccc(-c2noc3ccsc23)c1)c1ccccc1 [Example 56] | 93
C[C@@H](NC[C@](C)(O)COc1cccc(-c2noc3ccsc23)c1)c1ccccc1 [Example 55] | 72
O[C@H](CNCc1ccsc1)COc1ccc(-c2noc3ccsc23)cc1 [Example 41] | 62
O[C@H](CNCC1CCCCC1)COc1cccc(-c2noc3ccsc23)c1 [Example 92] | 94
O[C@@H](COc1cccc(-c2noc3ccsc23)c1)CN1CCC(O)(c2ccc(Cl)cc2)CC1 [Example 90] | 59

Second part, the molecule after the results:

inhibition at 1 µM [%] | SMILES
85 | O[C@@H](COc1cccc(-c2noc3ccsc23)c1)CN1CCCCC1 [Example 98]
91 | Cn1nc(-c2cccc(OC[C@H](O)CN3CCC(n4c(=O)[nH]c5ccccc54)CC3)c2)c2sccc21 [Example 103]
97 | Cn1nc(-c2cccc(OC[C@H](O)CN3CCC(C(=O)c4ccc(F)cc4)CC3)c2)c2sccc21 [Example 102]
58 | OC(COc1cccc(-c2noc3ccsc23)c1)CN1CCc2ccccc2C1 (racemic) [Compound 1, (±)-1-(3,4-dihydro-1H-isoquinolin-2-yl)-3-[3-(thieno[2,3-d]isoxazol-3-yl)phenoxy]-2-propanol hydrochloride]
90 | Cn1nc(-c2cccc(OC[C@H](O)CN3CCN(c4ccccc4)CC3)c2)c2sccc21 [Example 100]
95 | Cn1nc(-c2cccc(OC[C@H](O)CN3CCc4ccccc4C3)c2)c2sccc21 [Example 99]
57 | O[C@@H](COc1cccc(-c2noc3ccsc23)c1)CN1CCN(Cc2ccc3c(c2)OCO3)CC1 [Example 35]
89 | Cn1nc(-c2cccc(OC[C@H](O)CN3CCN(c4ncccn4)CC3)c2)c2sccc21 [Example 101]

Same assay, conditions: 3H-spiperone 0.25 nM, membranes of HEK 298 cells with human D4.2; Cheng-Prusoff from IC50; read-out: D4 RBA Ki

SMILES | Ki [nM]
CO[C@H](CNCc1ccccc1)COc1cccc(-c2noc3ccsc23)c1 [Example 39] | 26
O[C@H](CNC1CCc2ccccc21)COc1cccc(-c2noc3ccsc23)c1 (some centres unmarked) [Example 93] | 16
O[C@H](CNCc1cccc2ccccc12)COc1cccc(-c2noc3ccsc23)c1 [Example 10] | 103
CN(Cc1ccccc1)C[C@](C)(O)COc1cccc(-c2noc3ccsc23)c1 [Example 66] | 90
O[C@H](CNCc1ccco1)COc1cccc(-c2noc3ccsc23)c1 [Example 25] | 57
C[C@@](O)(COc1cccc(-c2noc3ccsc23)c1)CN1CCN(c2ccccc2C#N)CC1 [Example 68] | 29
O[C@H](CNCc1cccs1)COc1ccc(-c2noc3ccsc23)cc1 [Example 43] | 171
C[C@@](O)(CNCc1cccs1)COc1cccc(-c2noc3ccsc23)c1 [Compound 5 (maleate), (2R)-2-methyl-1-(3-thieno[2,3-d]isoxazol-3-yl-phenoxy)-3-[thienophen-2-ylmethyl)-amino-propan-2-ol maleate] | 59.2
C[C@@](O)(CNCc1cccc2ccccc12)COc1cccc(-c2noc3ccsc23)c1 [Example 21] | 55
CN(Cc1ccccc1)C[C@@H](O)COc1cccc(-c2noc3ccsc23)c1 [Compound 2] | 106
O[C@H](CNC1Cc2ccccc2C1)COc1cccc(-c2noc3ccsc23)c1 [Compound 91 (base), (2R)-1-(indan-2-ylamino)-3-(3-thieno[2,3-d]isoxazol-3-yl-phenoxy)-propan-2-ol] | 13
O[C@@H](COc1cccc(-c2noc3ccsc23)c1)CN1C2CCC1CC(c1noc3ccccc13)C2 (some centres unmarked) [Example 75] | 57
C[C@@](O)(CNCc1cccs1)COc1cccc(-c2noc3ccsc23)c1 [Compound 5 (freebase)] | 26
O[C@H](CNC1Cc2ccccc2C1)COc1cccc(-c2noc3ccsc23)c1 [Compound 91 (HCl), (2R)-1-(indan-2-ylamino)-3-(3-thieno[2,3-d]isoxazol-3-yl-phenoxy)-propan-2-ol] | 17
C[C@@](O)(CNCc1ccco1)COc1cccc(-c2noc3ccsc23)c1 [Example 17] | 45

Now from value to molecule:

Ki [nM] | SMILES
84 | O[C@@H](COc1cccc(-c2noc3ccsc23)c1)CN1CCN(c2ccccc2C(F)(F)F)CC1 [Example 36]
6 | O[C@@H](COc1cccc(-c2noc3ccsc23)c1)CN1CCN(c2nsc3ccccc23)CC1 [Example 76]
80 | COc1ccccc1N1CCN(C[C@@H](O)COc2ccc(-c3noc4ccsc34)cc2)CC1 [Example 45]
29.6 | O[C@@H](COc1cccc(-c2noc3ccsc23)c1)CN1CCN(c2ccc(Cl)cc2)CC1 [Compound 7, (2R)-1-[4-(4-chlorophenyl)piperazin-1-yl]-3-(3-thieno[2,3-d]isoxazol-3-yl-phenoxy)propan-2-ol hydrochloride]
1.7 | COc1ccccc1N1CCN(C[C@@H](O)COc2cccc(-c3noc4ccsc34)c2)CC1 [Compound 8]
19 | COc1ccccc1N1CCN(C[C@](C)(O)COc2cccc(-c3noc4ccsc34)c2)CC1 [Example 67]
